Molecules are shown by their SMILES.

The results in this text go back to paper PMC5367156 (ACS chemical biology, 2016).

The target of the test is NRF2 (nuclear factor erythroid 2-related factor 2) (Homo sapiens, UniProt Q16236). Description: FP displacement of fluorescein-ARE DNA from purified NRF2-MAFG. It counts as binding.
Sequence of NRF2 (nuclear factor erythroid 2-related factor 2) (O15525 whole entry): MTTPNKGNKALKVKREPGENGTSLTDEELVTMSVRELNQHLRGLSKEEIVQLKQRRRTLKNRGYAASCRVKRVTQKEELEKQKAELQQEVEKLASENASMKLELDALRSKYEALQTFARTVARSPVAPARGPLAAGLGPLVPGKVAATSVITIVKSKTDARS
Sequence of NRF2 (nuclear factor erythroid 2-related factor 2) (Q16236 whole entry): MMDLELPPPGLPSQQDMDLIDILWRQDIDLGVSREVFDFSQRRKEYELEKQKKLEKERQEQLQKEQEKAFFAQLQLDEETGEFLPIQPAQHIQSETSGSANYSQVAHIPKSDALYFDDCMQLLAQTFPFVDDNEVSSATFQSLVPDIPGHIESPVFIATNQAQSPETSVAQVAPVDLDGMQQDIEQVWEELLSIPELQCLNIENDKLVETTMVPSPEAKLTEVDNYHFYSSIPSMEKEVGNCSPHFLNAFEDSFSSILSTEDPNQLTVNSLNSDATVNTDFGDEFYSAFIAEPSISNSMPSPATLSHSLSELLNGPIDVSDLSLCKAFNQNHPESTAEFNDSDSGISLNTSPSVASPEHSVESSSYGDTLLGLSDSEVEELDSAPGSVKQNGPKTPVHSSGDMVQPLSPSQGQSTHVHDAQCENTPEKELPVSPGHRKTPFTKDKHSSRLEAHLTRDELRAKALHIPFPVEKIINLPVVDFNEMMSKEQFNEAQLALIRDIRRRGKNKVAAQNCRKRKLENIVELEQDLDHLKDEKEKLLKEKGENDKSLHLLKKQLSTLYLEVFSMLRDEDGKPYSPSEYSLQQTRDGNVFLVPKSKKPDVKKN

As a reminder, the IC50 is the concentration that inhibits the measured activity by half. A lower IC50 goes with inhibition by little substance. On to `Cc1ccccc1C(=O)N1CCc2cc(-c3nc(NC(=O)Cc4ccc5c(c4)OCO5)sc3C)ccc21` [compound 2, ML385], for which the IC50 worked out at 1.9 µM.
